Key:
[1] = system: BHK-21 cells; experiment: MTT cell proliferation cytotoxicity assay, BHK-21; type: cell-based; conditions: for CC50: BHK-21 cells, MTT, 42 h; for CC50 relative to IC50 (fold higher): BHK-21 CC50 vs in vitro IC50
[2] = target: T1, WNV MTase (West Nile virus, UniProt Q9Q6P4); experiment: N7 methylation inhibition assay, WNV MTase; conditions: for IC50: WNV MTase
[3] = target: T1, WNV MTase; experiment: 2′-O methylation inhibition assay, WNV MTase
[4] = system: WNV; experiment: microbe, parasite or virus in culture; type: cell-based, West Nile virus (WNV); conditions: West Nile virus, 42 h
[5] = system: DENV-2; experiment: microbe, parasite or virus in culture; type: cell-based, Dengue virus (DENV-2); conditions: Dengue virus, DENV2, A549, 42 h
[6] = system: SLEV; experiment: organism not typed; type: cell-based, St. Louis encephalitis viruses (SLEV); conditions: A549, 42 h
[7] = system: JEV; experiment: microbe, parasite or virus in culture; type: cell-based, Japanese encephalitis virus (JEV); conditions: Japanese encephalitis virus, A549, 42 h
[8] = system: VSV; type: cell-based
[9] = system: WEEV; type: cell-based
[10] = system: anthrax lethal factor (LF); conditions: cited from earlier work
[11] = system: herpes simplex virus (HSV)-1; conditions: cited from earlier work
[12] = cited from earlier work
[13] = target: DENV3MTase (Dengue virus type 3, UniProt Q6YMS4); experiment: Competitive SAM binding assay
[14] = read-out: IC50 N7, no CHAPS, no CHAPS
[15] = read-out: IC50 2′-O, with CHAPS, WNV MTase, with CHAPS
[16] = IC50 N7, with CHAPS, with CHAPS

T1 sequence (Q9Q6P4 2529-2794): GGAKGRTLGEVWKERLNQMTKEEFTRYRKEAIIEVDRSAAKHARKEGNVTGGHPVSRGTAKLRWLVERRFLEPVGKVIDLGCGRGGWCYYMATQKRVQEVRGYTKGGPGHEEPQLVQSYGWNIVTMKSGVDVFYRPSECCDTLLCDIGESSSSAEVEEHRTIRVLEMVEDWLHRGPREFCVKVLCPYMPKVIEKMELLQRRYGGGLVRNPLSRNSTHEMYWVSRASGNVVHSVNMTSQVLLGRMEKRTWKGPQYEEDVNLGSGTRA
Sequence of DENV3MTase (Q6YMS4 2492-2753): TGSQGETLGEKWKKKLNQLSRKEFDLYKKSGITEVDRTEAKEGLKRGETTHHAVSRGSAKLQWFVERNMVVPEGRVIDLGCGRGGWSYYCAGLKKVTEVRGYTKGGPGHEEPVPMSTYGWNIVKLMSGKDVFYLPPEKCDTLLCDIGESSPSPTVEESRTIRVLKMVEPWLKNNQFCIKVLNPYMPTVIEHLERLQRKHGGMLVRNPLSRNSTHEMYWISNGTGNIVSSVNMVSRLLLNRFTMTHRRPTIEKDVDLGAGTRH

SMILES	CC50 [1]	IC50 [2, 14]	IC50 [3, 15]	IC50 ([2]; IC50 N7, no CHAPS, no CHAPS)	IC50 [2, 16]	IC50 [3]	further results
CC1OC(CC(=O)O)Cc2c1c(O)c1c(O)cc(-c3cc(=O)c4c(=O)c5c(c(=O)c=4c3=O)CC(CC(=O)O)OC5C)c(O)c1c2O (stereo not shown) [NSC 293161]	25 µM	13.2 µM	54.6 µM				IC50 ([2]; read-out: IC50 N7, with CHAPS, with CHAPS): 31 µM
Nc1nc(-c2cccc([N+](=O)[O-])c2)cc(-c2cc(-c3cccc([N+](=O)[O-])c3)nc(N)n2)n1 [NSC 371880]	212 µM	63 µM	72 µM				
Nc1ccc(-c2ccc(Nc3cc(S(=O)(=O)O)c(N)c4c3C(=O)c3ccccc3C4=O)cc2)c(S(=O)(=O)O)c1 [NSC 125910]				7.6 µM	17.6 µM	3.2 µM	CC50 relative to IC50 (fold higher) [1]: 20 fold; EC50 [4]: 2.6 µM
Nc1ncnc2c1ncn2[C@@H]1O[C@H](C[C@@H](N)CC[C@H](N)C(=O)O)[C@@H](O)[C@H]1O [SIN, sinefungin, reference compound]							effect of CHAPS on inhibition activity ([2]; N7 inhibition with detergent CHAPS): not affected at all; inhibition at 150 µM ([2]; read-out: inhibition of N7 activity of the WNV MTase): ~80%
Cc1cc(N)c2cc(NC(=O)Nc3ccc4nc(C)cc(N)c4c3)ccc2n1 [NSC 12155, aminoquinuride]				1.4 µM	0.87 µM	3 µM	CC50 relative to IC50 (fold higher) [1]: 20 fold; EC50 [4]: 1 µM; EC50 [5]: 7 µM; EC50 [6]: 5.1 µM; EC50 [7]: 3.1 µM; inhibition of virus growth [8]: did not inhibit; inhibition of virus growth [9]: did not inhibit; anthrax lethal factor (LF) activity [10]: inhibited; cell adhesion by HSV-1 [11]: prevent cell adhesion; binding to glycosaminoglycans [12]: bind to glycosaminoglycans; IC50 [13]: 1.2 µM
S=C(Nc1ccc2c(c1)Cc1ccccc1-2)Nc1ccc2c(c1)Cc1ccccc1-2 [NSC 23217]				15.7 µM	> 300 µM	7.4 µM	
O=C1C2=C(Nc3cc([N+](=O)[O-])ccc3N2)OC1c1ccc(C2OC3=C(Nc4ccc([N+](=O)[O-])cc4N3)C2=O)cc1 (stereo not shown) [NSC 372295]	126 µM	62 µM	57 µM				

Reference: article PMC4696607 (ACS infectious diseases, 2015)
